Results reported in paper PMC10147923, “Pain-causing stinging nettle toxins target TMEM233 to modulate NaV1.7 function” (Nature Communications, 2023).
“And” between values parts separate entries of the source, which are not always exact repeats. Identical values can stand only once. Like-named read-outs stand apart in the source and are kept apart here. Positions of bridges follow the written chain, without caps; N, C: chain ends. Residues, ends and D or L forms follow the SMILES beside them.

Tests used:
[1] = test system: TE-671 cells, TMEM233 KO; assay type: cell-based; conditions: ExTxA 1 µM
[2] = test system: hNaV1.1; test: Persistent current, HEK293-hNaV1.1/β1; assay type: cell-based, human; conditions: ExTxA 1 µM; individual cells
[3] = test system: hNaV1.4; test: Persistent current, HEK293-hNaV1.4/β1; assay type: cell-based, human; conditions: ExTxA 1 µM
[4] = test system: hNaV1.6; test: Persistent current, HEK293-hNaV1.6/β1; assay type: cell-based, human; conditions: ExTxA 1 µM; individual cells
[5] = test system: hNaV1.8; test: Persistent current, CHO-hNaV1.8/β3; assay type: cell-based, human; conditions: ExTxA 1 µM
[6] = test system: hNaV1.7; test: Persistent current, CHO hNaV1.7, no β subunit; assay type: cell-based, human; conditions: ExTxA 1 µM
[7] = test system: hNaV1.7/β1; test: Persistent current, CHO hNaV1.7/β1; assay type: cell-based, human; conditions: ExTxA 1 µM, mean, n = 11
[8] = biological target: NaV1.7/TMEM233 (Homo sapiens, UniProt B4DJY2+Q15858); assay type: cell-based
Method: HEK293-NaV1.7 cells were transfected with TMEM233, CRELD1, LMAN2L, MMGT1, RNF121 and STT3B and co-transfected with five plasmids coding for the Glycosylphosphatidylinositol (GPI) complex (GPAA1, PIGK, PIGS, PIGU, PIGT) using Lipofectamine 2000. After 24 h, transfected cells were harvested and plated at a density of 10,000–15,000 cells per well on black-walled 384-well imaging plates. Plated cells were cultured for a further 24 h at 37 °C and 5% CO2. FLIPR (Fluorescent Imaging Plate Reader) Red membrane potential assay dye (Molecular Devices, California, USA) was diluted in physiological salt solution according to the manufacturer’s instructions (PSS, in mM: NaCl 140, glucose 11.5, HEPES 10, KCl 5.9, MgCl2 1.4, NaH2PO4 1.2, NaHCO3 5, CaCl2 1.8, pH 7.4). Growth medium was removed from the plate and replaced with 20 µL of FLIPR Red membrane potential assay dye per well and incubated in the dark at 37 °C for 60 min. […] Fluorescence responses to ExTxA were computed as the maximum change in fluorescence over baseline (ΔF/F0) using ScreenWorks (Molecular Devices, Version 5.1.2.94).

[9] = test system: Tmem233Cre/Cre knockout mice; test: Nocifensive behaviors after intraplantar injection, Tmem233Cre/Cre mice; assay type: in vivo, mouse
Method: Nocifensive responses to intraplantar administration of ExTxA (5–10 nM) were assessed as previously described. In brief, ExTxA was diluted in sterile saline/0.1% BSA and administered by an intraplantar injection (40 μL) into a single hind paw of Tmem233^Cre/Cre, NaV1.7^Advill and wild-type littermate controls. Pain behaviors, consisting of paw licks or flinches, were counted from video recordings by a blinded investigator for up to 60 min following injection.

[10] = NMR of 15N-labelled ExTxA with dodecylphosphocholine micelles; assay type: binding; conditions: 1H-15N TROSY, 30 µM peptide, 20 mM Tris pH 8, 50 mM NaCl, 10% DPC, 298 K
Method: For NMR analysis, lyophilized ^15N-labelled ExTxA was resuspended either in 40% deuterated acetonitrile or buffer containing 20 mM Tris pH 8, 50 mM NaCl, 10% (w/v) dodecylphosphocholine (DPC) and 5% D2O. ^1H-^15N transverse relaxation optimized spectroscopy (TROSY) spectra were acquired for the peptide samples (30 µM) on a Bruker Avance 900 MHz NMR spectrometer equipped with a triple resonance cryogenic probe at 298 K. The spectra were processed using TOPSPIN v4.1.4 software (Bruker, Massachusetts, USA).

[11] = biological target: NaV1.7/PRRT2 (Homo sapiens, UniProt Q15858+Q7Z6L0); assay type: cell-based
[12] = best-fit value, log(agonist) vs. response -- variable slope (four parameters)

NaV1.7/PRRT2, sequence (Q7Z6L0 whole entry): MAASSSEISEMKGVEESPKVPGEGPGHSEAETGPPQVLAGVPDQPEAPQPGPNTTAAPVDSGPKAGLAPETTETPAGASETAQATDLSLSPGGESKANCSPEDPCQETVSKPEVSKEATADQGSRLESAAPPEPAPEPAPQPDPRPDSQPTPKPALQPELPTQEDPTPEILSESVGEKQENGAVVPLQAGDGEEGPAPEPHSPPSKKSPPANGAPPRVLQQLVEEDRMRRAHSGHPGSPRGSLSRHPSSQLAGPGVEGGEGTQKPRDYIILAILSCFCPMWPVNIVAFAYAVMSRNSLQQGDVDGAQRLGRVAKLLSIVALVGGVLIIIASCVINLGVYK
NaV1.7/PRRT2, sequence (Q07699 19-218, further chain): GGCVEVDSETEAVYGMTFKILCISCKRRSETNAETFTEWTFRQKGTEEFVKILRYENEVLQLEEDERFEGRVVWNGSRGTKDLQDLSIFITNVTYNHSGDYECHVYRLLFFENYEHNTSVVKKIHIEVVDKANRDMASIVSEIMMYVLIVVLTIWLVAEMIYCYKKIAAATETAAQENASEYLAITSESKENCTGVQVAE
NaV1.7/PRRT2, sequence (Q15858 whole entry): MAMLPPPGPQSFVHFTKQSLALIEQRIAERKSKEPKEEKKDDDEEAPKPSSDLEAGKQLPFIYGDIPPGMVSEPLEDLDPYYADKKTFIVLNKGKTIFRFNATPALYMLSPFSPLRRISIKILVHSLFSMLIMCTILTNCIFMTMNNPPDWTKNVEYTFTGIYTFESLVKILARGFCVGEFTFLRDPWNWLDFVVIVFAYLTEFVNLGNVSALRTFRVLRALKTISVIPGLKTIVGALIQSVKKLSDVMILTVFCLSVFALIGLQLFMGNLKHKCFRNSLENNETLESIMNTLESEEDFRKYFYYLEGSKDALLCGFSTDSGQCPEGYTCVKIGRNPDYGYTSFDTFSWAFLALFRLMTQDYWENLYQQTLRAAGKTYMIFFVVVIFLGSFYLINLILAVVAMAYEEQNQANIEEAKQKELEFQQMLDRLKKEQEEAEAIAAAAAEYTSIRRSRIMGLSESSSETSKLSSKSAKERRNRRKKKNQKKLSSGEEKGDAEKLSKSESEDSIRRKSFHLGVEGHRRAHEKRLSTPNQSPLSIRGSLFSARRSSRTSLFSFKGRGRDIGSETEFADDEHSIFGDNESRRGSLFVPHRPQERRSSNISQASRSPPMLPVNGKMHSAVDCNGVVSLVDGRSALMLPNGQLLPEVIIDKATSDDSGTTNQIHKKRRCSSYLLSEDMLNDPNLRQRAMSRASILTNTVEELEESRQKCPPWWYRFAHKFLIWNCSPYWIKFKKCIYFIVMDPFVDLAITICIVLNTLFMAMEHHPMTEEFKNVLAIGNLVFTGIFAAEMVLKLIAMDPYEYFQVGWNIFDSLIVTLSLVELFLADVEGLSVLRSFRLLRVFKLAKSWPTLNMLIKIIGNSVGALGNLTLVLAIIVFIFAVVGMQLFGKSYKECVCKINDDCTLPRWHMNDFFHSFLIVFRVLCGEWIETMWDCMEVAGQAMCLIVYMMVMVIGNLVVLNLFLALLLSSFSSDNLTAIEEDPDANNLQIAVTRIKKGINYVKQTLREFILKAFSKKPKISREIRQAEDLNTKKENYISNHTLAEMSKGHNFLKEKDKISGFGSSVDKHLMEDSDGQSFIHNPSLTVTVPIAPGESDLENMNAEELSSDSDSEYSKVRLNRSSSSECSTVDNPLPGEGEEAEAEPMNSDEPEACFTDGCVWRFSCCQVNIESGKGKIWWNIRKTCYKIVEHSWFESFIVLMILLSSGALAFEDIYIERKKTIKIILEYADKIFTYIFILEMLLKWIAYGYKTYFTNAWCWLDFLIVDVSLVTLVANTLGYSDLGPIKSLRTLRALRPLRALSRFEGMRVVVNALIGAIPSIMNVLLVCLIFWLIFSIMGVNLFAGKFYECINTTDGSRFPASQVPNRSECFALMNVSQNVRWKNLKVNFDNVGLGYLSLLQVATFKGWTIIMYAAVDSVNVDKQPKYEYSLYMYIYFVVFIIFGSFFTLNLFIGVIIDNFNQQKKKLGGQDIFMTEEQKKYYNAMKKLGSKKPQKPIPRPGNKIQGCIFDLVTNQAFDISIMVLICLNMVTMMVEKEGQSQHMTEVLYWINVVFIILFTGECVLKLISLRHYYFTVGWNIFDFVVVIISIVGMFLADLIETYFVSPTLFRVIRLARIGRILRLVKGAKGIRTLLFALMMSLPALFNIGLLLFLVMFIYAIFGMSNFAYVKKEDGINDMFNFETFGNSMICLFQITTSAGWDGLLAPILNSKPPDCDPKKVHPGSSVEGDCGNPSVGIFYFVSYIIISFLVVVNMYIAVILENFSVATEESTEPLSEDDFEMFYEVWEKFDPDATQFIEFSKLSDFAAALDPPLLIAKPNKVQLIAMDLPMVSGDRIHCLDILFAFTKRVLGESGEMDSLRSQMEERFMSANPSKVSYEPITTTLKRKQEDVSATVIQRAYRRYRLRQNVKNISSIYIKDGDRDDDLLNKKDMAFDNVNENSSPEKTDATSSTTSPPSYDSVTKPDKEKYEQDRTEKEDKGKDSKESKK

SMILES: CC[C@H](C)[C@@H]1NC(=O)[C@H](CCCNC(=N)N)NC(=O)[C@H](Cc2ccccc2)NC(=O)[C@H](CC(C)C)NC(=O)[C@H](CO)NC(=O)[C@@H]2CSSC[C@@H]3NC(=O)[C@H]([C@@H](C)O)NC(=O)[C@H](CSSC[C@H](NC(=O)[C@H](CCCNC(=N)N)NC(=O)[C@@H]4CCCN4C(=O)[C@@H](N)CC(C)C)C(=O)N[C@@H](CC(=O)O)C(=O)N[C@@H](CO)C(=O)N4CCC[C@H]4C(=O)N[C@@H](Cc4ccccc4)C(=O)N2)NC(=O)[C@H](CCCCN)NC(=O)[C@H](CC(=O)O)NC(=O)CNC(=O)[C@H](CSSC[C@@H](C(=O)N[C@H](C(=O)N2CCC[C@H]2C(=O)N[C@@H](CC(=O)O)C(=O)N[C@H](C(=O)O)C(C)C)C(C)C)NC(=O)[C@H](CC(C)C)NC(=O)CNC(=O)[C@H](Cc2ccccc2)NC(=O)[C@H]([C@@H](C)CC)NC(=O)[C@@H]2CCCN2C(=O)[C@H](CC(C)C)NC(=O)[C@@H]2CCCN2C(=O)[C@H](C(C)C)NC3=O)NC(=O)[C@H](CC(C)C)NC(=O)CNC1=O [ExTxA, excelsatoxin A] (H-LPRCDSPFCSLFRIGLCGDKCTCVPLPIFGLCVPDV-OH; disulfide 4-21, 9-23, 17-32)
- Difference between means (B - A), TMEM233-/- minus wildtype [1]: -0.7661 ± 0.02026
- persistent current (I40 ms/Ipeak) ([1]; TMEM233-/-, individual cells): 0.1031 and 0.03299 and 0.02248 and 0.06663 and 0.03142 and 0.02781
- persistent current (I40 ms/Ipeak) [2]: 0.000881 and 0.001374 and 0.002237 and -0.03938 and -0.00046 and -0.00216 and -0.00201 and 0.01125 and 0.00618 and -0.00021 and -0.01358
- persistent current (I40 ms/Ipeak) ([3]; individual cells): -0.00323 and 0.000561 and 0.001128 and 1.82e-5 and 3.19e-5 and 0.001575 and 0.001393 and -0.00031 and -0.00116
- Δ persistent current (I40 ms/Ipeak; buffer cf. ExTxA) ([3]; mean): 7.89E-07 ± 0.0005 and 7.889e-7
- persistent current (I40 ms/Ipeak) [4]: -0.07037 and 0.003531 and 0.01691 and 0.001263 and 0.000702 and -0.00068 and -0.03041 and 0.01768
- persistent current (I40 ms/Ipeak) ([5]; individual cells): 0.04156 and 0.003935 and 0.01946 and 0.03094 and 0.03913 and 0.02554
- Δ persistent current (I40 ms/Ipeak; buffer cf. ExTxA) ([5]; mean): 0.027 ± 0.0057 and 0.02676
- CHO cells persistent current (I40 ms) ([6]; hNaV1.7 alone, mean ± SEM, n = 6): 0.000 ± 0.002 nA
- Δ persistent current (I40 ms/Ipeak) in CHO hNaV1.7 ([6]; no β subunit, mean, n = 12): 0.001 ± 0.004 and 0.0009513
- Δ persistent current (I40 ms/Ipeak) in CHO hNaV1.7 [7]: 0.0001 ± 0.001 and 0.0001365
- DF/F [8]: 0.3009 and 0.2755
- ΔF/F in NaV1.7 HEK293 ([8]; ExTxA 1 µM, TMEM233, mean, n = 3): 0.29 ± 0.0075 and 0.2867
- DF/F ([8]; ExTxA 1 µM, TMEM233, replicate 3): 0.2837
- Bottom [8, 12]: 0.07296
- HillSlope [8, 12]: 1.156
- LogEC50 [8, 12]: -8.146
- Span [8, 12]: 0.6962
- Top [8, 12]: 0.7692
- ExTxA-sensitivity of NaV1.7-expressing HEK293 cells ([8]; of all 10 gene hits): only expression of TMEM233 imparted ExTxA-sensitivity to NaV1.7-expressing HEK293 cells
- nocifensive behaviors, 0-40 min combined (Fig. 3g) ([9]; TMEMCre KO, 0-40 min, individual animals, one line each (n = 16)): 8 and 6 and 329 and 151 and 352 and 36 and 124 and 41 and 45 and 71 and 136 and 66 and 142 and 96
- nocifensive behaviors, 0-40 min combined, mean (Fig. 3g) ([9]; TMEMCre KO, 0-40 min, mean, n = 16): 115.9
- ExTxA-induced pain behaviours (cumulative paw licks and flinches over 40 min) ([9]; i.pl. ExTxA 10 nM, Tmem233Cre KO, mean ± SEM, n = 16): 115.9 ± 25.3
- ExTxA-induced nocifensive behaviors in Tmem233Cre/Cre KO mice ([9]; mouse, in vivo): significantly reduced
- nocifensive behaviors, 0-40 min combined, difference between means (B - A) ± SEM (Fig. 3g) ([9]; mouse, in vivo): -118.4 ± 37.67
- association with dodecylphosphocholine micelles [10]: associates with dodecylphosphocholine micelles
- LogEC50 ([11]; Nav1.7/PRRT2, 95% CI -6.892 to -6.214, Fig 4g): -6.331
- HillSlope ([11]; Nav1.7/PRRT2, Fig 4g): 0.9384
- Top ([11]; Nav1.7/PRRT2, best-fit, constraint Top < 1, Fig 4g): 0.7711
- ExTxA-induced currents with PRRT2 ([11]; co-expression with NaV1.7): resulted in ExTxA-induced persistent currents
